# Several values for one entry are separate records, joined by “and”; a condition that tells them apart may be missing. Equal values may be shown once.
# Tested on: P. falciparum 3D7 growth, pLDH absorbance
# Assay: P. falciparum 3D7 growth inhibition, dose response, strain 3D7 (AID 2305)
row,Structure (SMILES),IC50
1,CCOC(=O)c1[nH]c(-c2ccccc2)nc1NC(=S)NC1CCCCC1,840 nM
2,CN1C(C)(C)CC(NC(=O)c2ccc(-c3cc4cc(Cl)c(Cl)cc4[nH]3)o2)CC1(C)C,1120 nM
3,N#Cc1ccc(CN2CCCN(Cc3cccc(NC(=O)c4ccc(Cl)c(Cl)c4)c3)CC2)cc1,850 nM
4,COc1ccc(COc2c(OC)cc(Cc3cnc(N)nc3N)cc2OC)cc1,910 nM
5,Cc1nc(C)c(CC(=O)Nc2cccc(-c3cccc(-c4nc5ccc(C(F)(F)F)cc5[nH]4)c3)c2)s1,830 nM
6,COc1ccc(-c2nc(NC(=O)Cc3ccc4c(c3)OCCO4)sc2C)cc1,240 nM
7,COc1cccc2c1CCN(CCN1CCC(CNC(=O)c3ccc(-c4ccc(C#N)cc4)cc3)CC1)C2,760 nM
8,CCC1(C)CC(CCNCc2ccccc2O)(c2ccc(F)cc2)CCO1 (centres undefined),880 nM
9,O=C(COC(=O)c1cccc(S(=O)(=O)N2CCc3ccccc32)c1)NNC(=O)c1cccs1,1250 nM
10,CC(C)NCc1ccc(-c2cccc(CN3CCC(c4ccccc4)CC3)c2)c(C(=O)NCC2CCCCC2)c1,850 nM
11,COc1ccc(CCN(C)CCOc2ccc(NC(=O)c3ccc([N+](=O)[O-])c4c(=O)c5ccccc5[nH]c34)cc2)cc1OC,930 nM
12,Nc1ccnc2ccc(NC(=O)CCCCCc3ccccc3)cc12,860 nM
13,Cc1ccc(S(=O)(=O)NC2=NC(C)(C)N(OCc3ccc(Cl)c(Cl)c3)C(N)=N2)cc1,1140 nM
14,CC(=O)Nc1ccc(OCCN(CC(C)C)c2ccc(C#N)c(C(F)(F)F)c2)c(Cl)c1,790 nM
15,O=C(Nc1cccc(-c2nc3ccccc3[nH]2)c1)c1cccc(NC(=O)c2ccco2)c1,360 nM
16,CNc1ccc(CNCc2cccc(-c3ccc(-c4nc5c(C)cccc5[nH]4)cc3)c2)cc1,660 nM
17,CC(C)(C)c1ccc2nc(-c3ccc(C(=O)NCc4cccc(C(F)(F)F)c4)cc3)[nH]c2c1,730 nM
18,Nc1ncc(-c2ccc3nccc(-c4ccncc4)c3c2)cc1S(=O)(=O)N1CCOCC1,870 nM
19,O=C(Nc1cccc(CN2CCCN(Cc3ccsc3)CC2)c1)c1ccc(Cl)c(Cl)c1,880 nM
20,CC(Cc1ccc(NC(=O)CCNCc2ccccc2)cc1)NCCc1cccc(Cl)c1 (centres undefined),150 nM
21,CC(C)(C)c1ccc(NC(=O)c2ccc(CN3CCCN(Cc4ccc(F)cc4)CC3)cc2)cc1,1110 nM
22,Cc1ccc(CCNCC(O)c2cccc(C(F)(F)F)c2)cc1 (centres undefined),870 nM
23,COc1ccc(-c2ccc(CNCc3ccccc3)cc2)cc1S(=O)(=O)NCCN1CCCC1,730 nM

row,Structure (SMILES),IC50
1,CN(C)CCNc1nccc(N2CCc3ncnc(Nc4ccc(OCc5cccc(F)c5)c(Cl)c4)c3C2)n1,140 nM
2,O=C(NCC(NCCCNc1cc(=O)c2ccccc2[nH]1)c1cc(Br)cc(Br)c1)C1=CCCC1 (centres undefined),900 nM
3,CCNc1cc(C(=O)N[C@@H](Cc2ccccc2)[C@H](O)CNC2CCSCC2)cc(N2CCCC2=O)c1,130 nM
4,Cc1ccc(F)cc1S(=O)(=O)Nc1ccc(CCN2CCC(N3CCCCC3)CC2)cc1,720 nM
5,O=C(C=Cc1ccccc1C(F)(F)F)NC1CCC(CN2CCC(c3c[nH]c4ccccc34)CC2)CC1 (centres undefined),900 nM and 680 nM
6,O=S(=O)(Nc1ccc2nccc(N3CCNCC3)c2c1)c1ccc2c(Cl)cccc2c1,570 nM
7,Nc1nc(N)c2c(ccn2Cc2cc3c(cc2Cl)OCO3)n1,760 nM
8,CCCCOc1cc(C)nc2ccc(NC(=O)COCC(=O)Nc3ccc4nc(C)cc(OCCCC)c4c3)cc12,1000 nM
9,CCc1cn2c3c(cc(C(=O)N[C@@H](Cc4cccc(Cl)c4)[C@H](O)CNC4CC4)cc13)N(C)S(=O)(=O)CC2,150 nM
10,CCOC(=O)C(C(=O)OCC)c1nc(C)ns1,470 nM
11,COc1ccc(C(O)CNC(C)CCc2ccccc2)cc1C(F)(F)F (centres undefined),70 nM
12,COc1ccc(S(=O)(=O)NC2CCN(c3ccnc4cc(Cl)ccc34)C2)cc1 (centres undefined),490 nM
13,Cc1c(C(=O)Nc2cc(Sc3ccc(F)cc3)cc([N+](=O)[O-])c2)sc2ncn(Cc3ccccc3F)c(=O)c12,800 nM
14,CC1CCCCN1CCCNc1ncc2c(-c3ccc(NC(=O)Nc4cc(C(F)(F)F)ccc4F)c(F)c3)nn(C)c2n1 (centres undefined),260 nM
15,CC1CN(Cc2cccc(C#N)c2)CCN1c1ccc(NC(=O)c2cccs2)cc1 (centres undefined),680 nM
16,CCNc1cc(C)nc(Nc2ccc(NC(=O)c3c(F)cccc3Cl)cc2)n1,1120 nM
17,CCC(C)OC(=O)C1=C(C)NC2=C(C(=O)CC(c3ccc(OC)c(OC)c3)C2)C1c1cccc(O)c1 (centres undefined),190 nM
18,Cn1ncc2ccc(Nc3nccc(-c4ccc5c(c4)c(N)nn5C)n3)cc21,650 nM
19,Clc1ccc2c(NCCc3ccccn3)ccnc2c1,830 nM
20,O=C(Nc1ccc(OC2CCN(Cc3ccc(F)cc3)C2)c(Cl)c1)c1ccoc1 (centres undefined),940 nM
21,Cc1cc(-c2ccc(NC(=O)Nc3ccc4nccc(N5CCN(C)CC5)c4c3)cc2C)cc(C)n1,150 nM
22,CCCCNC(=O)c1[nH]c2c(NC(=O)COc3ccccc3)cccc2c1-c1cccc(NC(=O)C(N)CO)c1 (centres undefined),850 nM
23,C=C[C@H]1CN2CC[C@@H]1C[C@H]2[C@H](O)c1cc(-c2ccc(F)cc2)nc2ccc(OC)cc12,170 nM

row,Structure (SMILES),IC50
1,O=C(Nc1ccc(-c2csc(-c3nc4ccccc4[nH]3)c2)cc1)Nc1ccsc1,550 nM
2,O=C(Nc1cccc(F)c1)c1ccc(C(=O)NC2CCN(CC3CCCCC3)CC2)cc1,860 nM
3,FC(F)(F)c1ccc2nccc(NN=CC=Cc3ccccc3)c2c1,1020 nM
4,CCc1ccc(NC(=O)c2ccc(CN3CCCN(Cc4cccc(C)c4)CC3)cc2)cc1,1130 nM
5,CCCCCCCCCN(CCC)C(=O)[C@@H]1OC(C(=O)OC(c2ccccc2)c2ccccc2)=C[C@H](NC(=O)OC(C)(C)C)[C@H]1NC(C)=O,640 nM
6,CC(=O)c1nccc(C)c1N,930 nM
7,Cc1nc(-c2ccc(C#N)cc2)sc1C(=O)NCCCCN1CCC(c2ccc3c(c2OCCO)CCCC3)CC1,850 nM
8,CCOc1c(Br)cc(C)cc1CNCCCNc1nc2ccccc2[nH]1,670 nM
9,CNC(=O)Cc1ccc(C(=O)Nc2cccc(-c3cccc(-c4nc5c(C)cccc5[nH]4)c3)c2)cc1,530 nM
10,NC(N)=Nc1ccc(NC(=O)Nc2ccc(N=C(N)N)cc2)cc1,390 nM
11,O=S(=O)(Nc1cc2c(cc1O)CCN(C1CCC1)CC2)c1ccc(-c2ccc(F)cc2)cc1,420 nM
12,Cc1[nH]c2cc(Cl)ccc2c1C1=CCN(CCN2CCOc3c(Br)cccc3C2=O)CC1,870 nM
13,CCOC(=O)c1[nH]c(-c2cc(Cl)nc(Cl)c2)nc1NC(=S)NCc1ccc(NS(C)(=O)=O)cc1,890 nM
14,CS(=O)(=O)c1ccc2nc(-c3cc(-c4cccc(F)c4)cnc3N)[nH]c2c1,1090 nM
15,O=C(Nc1ccc2c(c1)CCN2C1CCN(Cc2ccc(C(F)(F)F)cc2F)C1)c1ccco1 (centres undefined),510 nM
16,NCC(=O)c1cc2c(cc1N)OCCO2,1360 nM
17,c1ccc(CCNCc2cccc(-c3ccccc3CNCc3ccc4c(c3)OCO4)c2)nc1,970 nM
18,CS(=O)(=O)c1ccc(-c2cnc(N)c(-c3ccc(O)cc3)c2)cc1,1360 nM
19,COc1ccc(Nc2ncc(C#N)c(Nc3ccccc3C(N)=O)n2)cc1N1CCN(C)CC1,140 nM
20,COc1ccc(NC(=O)N2CCCN(CCCCCNC(=O)/C=C/c3ccc(Cl)cc3)CC2)cc1Cl,810 nM
21,Cc1cccc2[nH]c(-c3ccc(-c4ccc(C(=O)NCCc5cn(C)cn5)cc4)s3)nc12,960 nM
22,c1cc(Cc2ccc(Nc3c4ccccc4nc4ccccc34)cc2)cc(Nc2c3ccccc3nc3ccccc23)c1,140 nM
23,CCNc1cc(C(=O)N[C@@H](Cc2ccccc2)[C@H](O)CNC2(CCC(C)C)CC2)cc(N2CCCCS2(=O)=O)c1,1080 nM

# — PubChem BioAssay AID2305 (GlaxoSmithKline (GSK), 2010)
